± gives the expanded uncertainty stated by the source.

For data set [1] the following is noted: 101 kPa, Liquid; for viscosity: Capillary tube (Ostwald / Ubbelohde) method; for mass density: Pycnometric method.
The nature of data set [2]: refractive index (Na D-line) (dimensionless). The settings on record: 298.15 K; 101.33 kPa; Liquid; Standard Abbe refractometry.
Data set [3] can be described thus: xn = mol fraction of the nth substance listed. The settings on record: 101 kPa, Liquid, x2 = 0; for viscosity: Capillary tube (Ostwald / Ubbelohde) method; for mass density: Pycnometric method.

What is called viscosity is the resistance of a fluid to flow. As usually defined, the mass density is mass per unit of volume. Regarding `CC1OC(C)OC(C)O1` (stereo not given) [2,4,6-trimethyl-1,3,5-trioxane], the viscosity came out at 1.107 ± 0.015 mPa·s in data set [1] (298.15 K), 1.001 ± 0.014 mPa·s in data set [1] (303.15 K) and 0.907 ± 0.013 mPa·s in data set [1] (308.15 K). The mass density in data set [1] (298.15 K) turned out to be 988.4 ± 1.3 kg/m3; in data set [1] (303.15 K) it was 982.6 ± 1.3 kg/m3; in data set [1] (308.15 K), 976.4 ± 1.4 kg/m3.
For orientation: refractive index means a measure of how strongly the sample bends light. As for `CCCCOC(C)=O` [butyl ethanoate], the refractive index in data set [2] is given as 1.3918 ± 0.0009. Also, the viscosity in data set [1] (298.15 K) amounted to 0.685 ± 0.01 mPa·s; in data set [1] (303.15 K), 0.636 ± 0.01 mPa·s; in data set [1] (308.15 K) it was 0.579 ± 0.009 mPa·s. Also, the results for the mass density in data set [1] (298.15 K), in data set [1] (303.15 K) and in data set [1] (308.15 K) were 876.4 ± 1.1 kg/m3, 871.3 ± 1.1 kg/m3 and 866.2 ± 1.1 kg/m3, respectively.
With `CCCCOC(C)=O` [butyl ethanoate] + CC1OC(C)OC(C)O1, the values for the viscosity in data set [3] (298.15 K), in data set [3] (303.15 K) and in data set [3] (308.15 K) were 0.685 ± 0.01 mPa·s, 0.636 ± 0.01 mPa·s and 0.579 ± 0.009 mPa·s, respectively. Moreover, the mass density in data set [3] (298.15 K) worked out at 876.4 ± 1.1 kg/m3; in data set [3] (303.15 K), 871.3 ± 1.1 kg/m3; in data set [3] (308.15 K), 866.2 ± 1.1 kg/m3.
With `CCOC(C)=O` [ethyl acetate], the refractive index in data set [2] turned out to be 1.37 ± 0.0009. In addition, the values for the viscosity in data set [1] (298.15 K), in data set [1] (303.15 K) and in data set [1] (308.15 K) were 0.43 ± 0.008 mPa·s, 0.401 ± 0.008 mPa·s and 0.387 ± 0.008 mPa·s, respectively. Also, the mass density came to 893.8 ± 1.2 kg/m3 in data set [1] (298.15 K), 887.6 ± 1.2 kg/m3 in data set [1] (303.15 K) and 881.2 ± 1.2 kg/m3 in data set [1] (308.15 K).
Regarding `CCOC(C)=O` [ethyl acetate] + CC1OC(C)OC(C)O1, the values for the viscosity in data set [3] (298.15 K), in data set [3] (303.15 K) and in data set [3] (308.15 K) were 0.43 ± 0.008 mPa·s, 0.401 ± 0.008 mPa·s and 0.387 ± 0.008 mPa·s, respectively. Besides, the mass density in data set [3] (298.15 K) turned out to be 893.8 ± 1.2 kg/m3; in data set [3] (303.15 K), 887.6 ± 1.2 kg/m3; in data set [3] (308.15 K), 881.2 ± 1.2 kg/m3.
For `COC(C)=O` [methyl ethanoate], the refractive index in data set [2] is listed as 1.3585 ± 0.0009. The viscosity in data set [1] (298.15 K) stood at 0.367 ± 0.008 mPa·s; in data set [1] (303.15 K), 0.351 ± 0.007 mPa·s; in data set [1] (308.15 K), 0.338 ± 0.007 mPa·s. The mass density in data set [1] (298.15 K) came to 926.7 ± 1.3 kg/m3; in data set [1] (303.15 K) it was 919.7 ± 1.2 kg/m3; in data set [1] (308.15 K), 916.2 ± 1 kg/m3.
As to `COC(C)=O` [methyl ethanoate] + CC1OC(C)OC(C)O1, the viscosity was found to be 0.367 ± 0.008 mPa·s in data set [3] (298.15 K), 0.351 ± 0.007 mPa·s in data set [3] (303.15 K) and 0.338 ± 0.007 mPa·s in data set [3] (308.15 K). The mass density in data set [3] (298.15 K) stood at 926.7 ± 1.3 kg/m3; in data set [3] (303.15 K), 919.7 ± 1.2 kg/m3; in data set [3] (308.15 K), 916.2 ± 1 kg/m3.

Values taken from the NIST ThermoML archive (doi:10.1016/j.jct.2006.03.014).
